In patent publication US8003312B2, “Multiplex cellular assays using detectable cell barcodes” (The Board of Trustees of the Leland Stanford Junior …, priority 2007, dated 2011):

Experiments:
[1] = test system: Stat1 and ERK phosphorylation; test: 96-well FCB drug screen in Jurkat cells: class of drug activity, pERK versus pStat1; format: cell-based, human; settings: 20 μM, 45 min before stimulation with anti-CD3, anti-CD28 and IFN-γ for 5 min
Description: (a) Layout of screening experiment. Jurkat cells were treated with 70 known small-molecule kinase or phosphatase inhibitors (20 μM), Jak inhibitor I (2 μM) or U0126 (20 μM) for 45 min before stimulation with 5 μg/ml anti-CD3 and anti-CD28 and 10 ng/ml IFN-γ for 5 min. […] After fixation, cells were barcoded with Alexa 700-NHS (0, 0.06, 0.25 or 1 μg/ml) to delineate the four quadrants of the 96-well plate. Each quadrant was subdivided into four rows labeled with Pacific Blue-NHS (0, 0.04, 0.2 or 1 μg/ml) and six columns labeled with Alexa 488-NHS (0, 0.02, 0.06, 0.18, 0.5 or 1.5 μg/ml). […] (c) Heat map representation of percent inhibition of ERK and Stat1 phosphorylation. […] Wells with black triangles were excluded from the analysis due to high fluorescence of the drug in the phospho-protein fluorescence channels. […] (d) Two-dimensional plots of pERK versus pStat1.
For this purpose, we designed an FCB labeling scheme using three dyes to barcode 96 samples (FIG. 5). With this FCB setup, we screened a small-molecule library of 70 previously characterized kinase and phosphatase inhibitors for their ability to inhibit T-cell receptor-mediated ERK phosphorylation and/or Stat1 phosphorylation induced by IFN-γ (FIG. 5a). After addition of inhibitors, stimulation, fixation and barcoding, we combined all 96 samples into one sample and stained it with phycoerythrin-labeled antibodies against phosphorylated ERK (pERK PE) and pStat1 Alexa 647 antibodies (for a total of five fluorophores: three FCB reagents and two antibodies).
We cultured U937 cells, a monocytic lymphoma cell line, and Jurkat T cells in RPMI-1640 containing 10% fetal bovine serum, 100 U/ml penicillin, 100 μg/ml streptomycin, 1 mM L-glutamine (RPMI-10), and stimulated cells at a density of 10^6 cells/ml. […] We stimulated cells in 96-well deep block plates (2-ml capacity) by adding the appropriate cytokine or stimulus directly to the culture medium without prior starvation. After a 10-15-min incubation, we fixed cells with 1.6% formaldehyde for 10 min and then proceeded with the FCB phospho flow protocol below. Where inhibitors were used, we added these compounds 30 min before stimulation.
We performed phospho flow as previously described (ref. 4) with slight modifications to include FCB labeling. After formaldehyde fixation, we resuspended samples in 100% 20-25° C. methanol (typically 500 μl per 10^6 cells) containing the indicated concentration of Alexa Fluor or Pacific Blue succinimidyl esters, with each sample receiving a different concentration of fluorescent dye.

[2] = test system: Stat1 and ERK phosphorylation; test: Titration of four screening hits in Jurkat cells using six-sample FCB (pStat1, pERK); format: cell-based, human; settings: 30 min before IFN-γ (10 ng/ml) and anti-CD3/28 (5 μg/ml each)
Description: FIG. 8. Detailed titration of four hits from Jurkat drug screening experiment (FIG. 5). a) Four compounds: Bay11-7082, Indirubin-3-monoxime, PP2, and ZM449829 were added to Jurkat cells at different concentrations for 30 min prior to stimulation with IFN-γ (10 ng/ml) and anti-CD3/28 (5 μg/ml each). The cells were fixed and permeabilized, then stained with pStat1 Ax647 and pERK Ax488 antibodies. Percent inhibition of phosphorylation was plotted against concentration of drugs and fitted with a logistic regression curve to obtain IC50 values. Numbers in the top right of each plot are the IC50 value in μM units. b) Lysates were prepared from the same cells used for phospho flow and analyzed by western blot with pStat1 and pERK antibodies. Drugs were applied at 20 μM (same concentration as initial screen) for western blot analysis.
Because a few of these hits were unexpected, we performed titration experiments using six-sample FCB on four of the compounds to validate the results (FIG. 8).
We calculated fold change of phosphorylation upon stimulation by dividing median fluorescence intensity (MFI) of stimulated samples by the MFI of unstimulated samples: FC=MFIstim/MFIunstim. For heat map analysis, FC was converted to log2 values to enhance visualization and so that samples showing no change have a value of zero. To measure drug activity, we calculated percent inhibition as follows: Percent Inhibition=1−((MFItreated ? MFIunstim)/(MFIstim ? MFIunstim)), where “treated” denotes drug treated (and stimulated) samples, “stim” denotes control stimulated (non drug treated) samples, and “unstim” denotes control unstimulated (non drug treated) samples. We calculated Z′-factor from control stimulated and unstimulated samples by the following: Z′-factor=1 ? ((3[…]SDstim 3[…]SDunstim)/(meanstim ? meanunstim)), where “SD” denotes standard deviation of the mean, and “mean” denotes the mean of either stimulated or unstimulated MFI values. Z′-factor is an indication of the robustness and suitability of an assay for high throughput screening, with values from 0.5 to 1 indicating an excellent assay, 0 to 0.5 indicating a usable assay, and less than 0 indicating the assay has too much noise or inadequate dynamic range.

pStat1 in B cells = test: IFN-γ time course and dose titration in primary mouse splenocytes: pStat1 in B cells; format: cell-based
Description: (§1) FIG. 6. Use of FCB to label primary cell populations. […] (a) Mouse splenocytes were stimulated with different concentrations of IFN-γ across each row (0, 0.17, 0.5, 1.5, 4.5, 13, 40, 120, 370, 1,100, 3,300 or 10,000 pg/ml) for 0, 4, 8, 15, 30, 60, 120 or 180 min (each row representing a different time point). Cells were barcoded with three FCB markers (Alexa 700, Alexa 488 and Pacific Blue as in FIG. 5) during permeabilization, and stained with CD11b Cy5.5PerCP, B220 QD605, TCR PE, CD4 Cy7PE and pStat1 Alexa 647. Cell types were first gated based on surface markers to obtain CD11b-hi cells (neutrophils), B cells, CD4+ T cells and CD4-T cells. Each cell type was then deconvoluted to obtain the original 96-well plate layout. (b) Heat map representation showing the fold change in pStat1 levels on a log 2 scale across dose (from left to right) and time gradients (top to bottom). Yellow represents maximal induction, red indicates half-maximal induction, and black indicates no induction. Note that the scale for each cell type is different owing to different maximal induction of Stat1 phosphorylation.
(§2) Primary cells, and diseased cells from patients, are a limited resource and are not amenable to the majority of high-throughput screening systems. Therefore, we tested whether FCB could be applied to large-scale signaling profiling of heterogeneous populations of normal and/or diseased cells (refs. 13, 14). To this end, we stimulated primary mouse splenocytes with IFN-γ in a 96-well plate format, and asked whether different cell types show different kinetics and thresholds of responsiveness to IFN-γ. We performed a time course of stimulation across 11 different concentrations of the cytokine. Here, to discriminate cell types in addition to measuring phosphorylation levels, we stained the cells with pStat1 Alexa 647 and four surface marker antibodies: B220, TCR, CD4 and CD11b (for a total of eight colors: three FCB markers, four surface antibodies and one phospho antibody). […]

[3] = test system: pStat1 in CD11b-hi cells (neutrophils); test: IFN-γ time course and dose titration in primary mouse splenocytes: pStat1 in neutrophils; format: cell-based
Description: as §1, §2

[4] = test system: pStat1 in CD4+ and CD4− T cells; test: IFN-γ time course and dose titration in primary mouse splenocytes: pStat1 in T cells; format: cell-based
Description: as §1
Primary cells, and diseased cells from patients, are a limited resource and are not amenable to the majority of high-throughput screening systems. Therefore, we tested whether FCB could be applied to large-scale signaling profiling of heterogeneous populations of normal and/or diseased cells (refs. 13, 14). To this end, we stimulated primary mouse splenocytes with IFN-γ in a 96-well plate format, and asked whether different cell types show different kinetics and thresholds of responsiveness to IFN-γ. We performed a time course of stimulation across 11 different concentrations of the cytokine. Here, to discriminate cell types in addition to measuring phosphorylation levels, we stained the cells with pStat1 Alexa 647 and four surface marker antibodies: B220, TCR, CD4 and CD11b (for a total of eight colors: three FCB markers, four surface antibodies and one phospho antibody). We first gated cell types based on surface marker expression to obtain B cells, CD4+ T cells, CD4− T cells and CD11b-hi cells (neutrophils) 25 (FIG. 6a). We then deconvoluted each cell type to obtain the original plate layout.
We cultured U937 cells, a monocytic lymphoma cell line, and Jurkat T cells in RPMI-1640 containing 10% fetal bovine serum, 100 U/ml penicillin, 100 μg/ml streptomycin, 1 mM L-glutamine (RPMI-10), and stimulated cells at a density of 10^6 cells/ml. We obtained splenocytes from BALB/c mice by homogenization and resuspended them in RPMI-10 at 5 106 cells/ml. Splenocytes were rested for 2-3 h at 37° C. before stimulation13. We stimulated cells in 96-well deep block plates (2-ml capacity) by adding the appropriate cytokine or stimulus directly to the culture medium without prior starvation. […]

Stat3 phosphorylation = test: Miniature drug screen by FCB phospho flow in U937 cells: IL-6-induced pStat3; format: cell-based, human; settings: added 30 min before stimulation with IFN-γ, IL-6 and GM-CSF
Description: (§3) FIG. 4. FCB of 36 samples increases throughput of phospho flow. (a) Efficient barcoding of 36 samples. U937 cells were left untreated or were stimulated with IFN-γ (10 ng/ml) for 10 min. Unstimulated and stimulated samples were added to a 96-well plate in an alternating pattern across each row and down each column and labeled with six concentrations of Pacific Blue-NHS (0, 0.15, 0.6, 2.5, 10 or 40 μg/ml) and/or Alexa 488-NHS (0, 0.07, 0.3, 1.3, 5 or 20 μg/ml). […] Reverse deconvolution (bottom panel) of all stimulated or unstimulated cells produced the expected checkerboard pattern. (b) Miniature drug screen and titration of inhibitors with FCB. U937 cells were treated with various drugs before stimulation with IFN-γ, IL-6 and GM-CSF (stimulation). WHI-P154 (WHI; 50 μM), PD98059 (PD; 20 μM), Jak inhibitor I (Jak-1; 5 μM), and wortmannin (Wort; 2 μM) were added to the cells 30 min before stimulation; samples were barcoded with Pacific Blue-NHS and simultaneously stained with pStat1 Alexa 488, pStat3 PE and pStat5 Alexa 647 (left three plots). Jak inhibitor I was added at 0.005, 0.05, 0.5 or 5 μM for 30 min before stimulation (middle). WHI-P154 was added at 0.1, 1, 10 or 100 μM for 30 min before stimulation (right). Non-drug-treated positive and negative controls are included within each FCB staining set, allowing for internal normalization of each staining cocktail. […]

Stat signaling = test: Miniature drug screen and inhibitor titration in U937 cells: Stat signaling overall (pStat1, pStat3, pStat5); format: cell-based, human; settings: for order of selectivity for the cytokine pathways: titration (Jak inhibitor I 0.005-5 μM, WHI-P154 0.1-100 μM), 30 min before stimulation
Description: FIG. 4. FCB of 36 samples increases throughput of phospho flow. (a) Efficient barcoding of 36 samples. U937 cells were left untreated or were stimulated with IFN-γ (10 ng/ml) for 10 min. Unstimulated and stimulated samples were added to a 96-well plate in an alternating pattern across each row and down each column and labeled with six concentrations of Pacific Blue-NHS (0, 0.15, 0.6, 2.5, 10 or 40 μg/ml) and/or Alexa 488-NHS (0, 0.07, 0.3, 1.3, 5 or 20 μg/ml). […] Reverse deconvolution (bottom panel) of all stimulated or unstimulated cells produced the expected checkerboard pattern. (b) Miniature drug screen and titration of inhibitors with FCB. U937 cells were treated with various drugs before stimulation with IFN-γ, IL-6 and GM-CSF (stimulation). WHI-P154 (WHI; 50 μM), PD98059 (PD; 20 μM), Jak inhibitor I (Jak-1; 5 μM), and wortmannin (Wort; 2 μM) were added to the cells 30 min before stimulation; samples were barcoded with Pacific Blue-NHS and simultaneously stained with pStat1 Alexa 488, pStat3 PE and pStat5 Alexa 647 (left three plots). Jak inhibitor I was added at 0.005, 0.05, 0.5 or 5 μM for 30 min before stimulation (middle). WHI-P154 was added at 0.1, 1, 10 or 100 μM for 30 min before stimulation (right). Non-drug-treated positive and negative controls are included within each FCB staining set, allowing for internal normalization of each staining cocktail.
We next applied the FCB platform to a drug screening profile, as a real-world example of how the technique could be used to enhance analysis throughput and reproducibility (FIG. 4b). Using Pacific Blue as the FCB reagent, we pretreated U937 cells with four small-molecule inhibitors: wortmannin (a PI-3 kinase inhibitor), Jak inhibitor I (an inhibitor of all Jak kinases), PD98059 (an MEK inhibitor) and WHI-P154 (a Jak3 inhibitor). We then stimulated the cells simultaneously with IFN-γ, IL-6 and granulocyte-monocyte colony-stimulating factor (GM-CSF) to induce pStat1, pStat3 and pStat5, respectively. […]

Stat5 phosphorylation = test: Miniature drug screen by FCB phospho flow in U937 cells: GM-CSF-induced pStat5; format: cell-based, human; settings: added 30 min before stimulation with IFN-γ, IL-6 and GM-CSF
Description: as §3

Stat1 phosphorylation = test: Miniature drug screen by FCB phospho flow in U937 cells: IFN-γ-induced pStat1; format: cell-based, human; settings: added 30 min before stimulation with IFN-γ, IL-6 and GM-CSF
Description: as §3

## O=C1Nc2ccccc2/C1=C1/Nc2ccccc2/C1=N\O [indirubin-3′-monooxime]
[1]
  class of drug activity (selectivity, Stat1 versus ERK phosphorylation): selectivity for inhibiting Stat1 phosphorylation
[2]
  selectivity for Stat1 (over ERK) phosphorylation: extremely selective

## IFN-γ: mouse IFN-γ from BD Pharmingen, cytokine used to stimulate primary mouse splenocytes
pStat1 in B cells
  maximum induction of pStat1: 19-23 fold
  time of maximal pStat1 induction: 8-30 min
pStat1 in B cells; B cells of mouse splenocytes
  EC50, pStat1 induction: 220 pg/ml
[3]
  maximum induction of pStat1: 4.5 fold
  time of maximal pStat1 induction: 30-60 min
[3]; neutrophils (CD11b-hi cells) of mouse splenocytes
  EC50, pStat1 induction: 400 pg/ml
[4]; CD4+ T cells of mouse splenocytes
  half-maximal response concentration (EC50), pStat1 induction: 50 pg/ml
[4]; CD4+/CD4− T cells of mouse splenocytes
  maximum induction of pStat1: 19-23 fold
[4]; CD4− T cells of mouse splenocytes
  half-maximal response concentration (EC50), pStat1 induction: 50 pg/ml
[4]; T cells of mouse splenocytes
  time of maximal pStat1 induction: 30 min

## COc1cc2ncnc(Nc3ccc(O)c(Br)c3)c2cc1OC [WHI-P154]
Stat3 phosphorylation; 50 μM
  inhibition of Stat3 phosphorylation: 100%
Stat signaling
  order of selectivity for the cytokine pathways: IL-6-Stat3>IFN-γ-Stat1>GM-CSF-Stat5
Stat5 phosphorylation; 50 μM
  inhibition of Stat5 phosphorylation: 40%
Stat1 phosphorylation; 50 μM
  inhibition of Stat1 phosphorylation: 80%

## COc1cccc(-c2cc(=O)c3ccccc3o2)c1N [PD98059]
Stat signaling; 20 μM, added 30 min before stimulation with IFN-γ, IL-6 and GM-CSF
  effects on Stat signaling: no or minor effects

## CCCCCCCCCCCCC/C=C/[C@@H](O)[C@@H](N)CO [sphingosine]
[1]
  class of drug activity (selectivity, Stat1 versus ERK phosphorylation): selectively inhibited ERK phosphorylation

## N#CC(=C(/N)Sc1ccccc1N)/C(C#N)=C(\N)Sc1ccccc1N [U0126]
[1]
  class of drug activity (selectivity, Stat1 versus ERK phosphorylation): selectively inhibited ERK phosphorylation

## CC(C)(C)n1nc(-c2ccc(Cl)cc2)c2c(N)ncnc21 [PP2]
[1]
  class of drug activity (selectivity, Stat1 versus ERK phosphorylation): selectively inhibited ERK phosphorylation
[2]
  selectivity for ERK (over Stat1) phosphorylation: extremely selective

## C=CC(=O)c1ccc2ccccc2c1 [ZM-449829]
[1]
  class of drug activity (selectivity, Stat1 versus ERK phosphorylation): inhibited both Stat1 and ERK phosphorylation potently
[2]
  selectivity between ERK and Stat1 phosphorylation: little selectivity

## Jak inhibitor I
Stat3 phosphorylation; 5 μM
  inhibition of Stat3 phosphorylation: completely abrogating
Stat signaling
  order of selectivity for the cytokine pathways: IL-6-Stat3>IFN-γ-Stat1>GM-CSF-Stat5
Stat5 phosphorylation; 5 μM
  inhibition of Stat5 phosphorylation: completely abrogating
Stat1 phosphorylation; 5 μM
  inhibition of Stat1 phosphorylation: completely abrogating
